Test results taken from the NIST ThermoML archive (doi:10.1021/je060271a).
“And” between values parts separate entries of the source, which are not always exact repeats. Equal entries are not always repeated.

Details: Liquid, Vibrating tube method

CCCCCC(=O)OCC(COC(=O)CCCCC)(COC(=O)CCCCC)COC(=O)CCCCC [pentaerythritol tetrahexanoate]
Details	mass density
283.16 K, 9726 kPa	1009.7 kg/m3
283.16 K, 9740.5 kPa	1009.7 kg/m3
283.16 K, 11666 kPa	1010.8 kg/m3
283.16 K, 11699 kPa	1010.9 kg/m3
283.16 K, 11719 kPa	1011 kg/m3
283.16 K, 11736 kPa	1010.9 kg/m3
283.16 K, 11882 kPa	1011 kg/m3
283.16 K, 15896 kPa	1013.2 kg/m3
283.16 K, 15917 kPa	1013.2 kg/m3
283.16 K, 15934 kPa	1013.3 kg/m3
283.16 K, 15952 kPa	1013.2 kg/m3
283.16 K, 15973 kPa	1013.2 kg/m3
283.16 K, 15990 kPa	1013.1 kg/m3
283.16 K, 16007 kPa	1013.1 kg/m3
283.16 K, 16028 kPa	1013.2 kg/m3
283.16 K, 16047 kPa	1013.4 kg/m3
283.16 K, 17073 kPa	1013.9 kg/m3
283.16 K, 17091 kPa	1013.8 kg/m3
283.16 K, 17101 kPa	1013.8 kg/m3
283.16 K, 17102 kPa	1013.8 kg/m3
283.16 K, 17103 kPa	1013.9 kg/m3
283.16 K, 21750 kPa	1016.3 kg/m3
283.16 K, 24165 kPa	1017.6 kg/m3
283.16 K, 24256 kPa	1017.8 kg/m3
283.16 K, 24293 kPa	1017.8 kg/m3
283.16 K, 24310 kPa	1017.7 kg/m3
283.16 K, 24348 kPa	1017.7 kg/m3
283.16 K, 26923 kPa	1019 kg/m3
283.16 K, 26937 kPa	1019 kg/m3
303.14 K, 14075 kPa	997.2 kg/m3
303.14 K, 21030 kPa	1001.2 kg/m3
303.14 K, 32666 kPa	1007.6 kg/m3
303.14 K, 32689 kPa	1007.7 kg/m3
303.14 K, 32708 kPa	1007.8 kg/m3
303.14 K, 32727 kPa	1007.7 kg/m3
303.14 K, 32750 kPa	1007.8 kg/m3
303.14 K, 32770 kPa	1007.7 kg/m3
303.14 K, 32789 kPa	1007.7 kg/m3
303.14 K, 34002 kPa	1008.2 kg/m3
303.14 K, 34004 kPa	1008.4 kg/m3
303.14 K, 34018 kPa	1008.3 kg/m3
303.14 K, 34022 kPa	1008.4 kg/m3
303.14 K, 34024 kPa	1008.4 kg/m3
303.14 K, 34030 kPa	1008.3 kg/m3
303.14 K, 34038 kPa	1008.4 kg/m3
303.14 K, 34043 kPa	1008.4 kg/m3
303.14 K, 34049 kPa	1008.2 kg/m3
303.14 K, 34053 kPa	1008.4 kg/m3
303.14 K, 34057 kPa	1008.5 kg/m3
303.14 K, 34060 kPa	1008.3 kg/m3
303.14 K, 34063 kPa	1008.4 kg/m3
303.14 K, 34084 kPa	1008.5 kg/m3
303.14 K, 34101 kPa	1008.4 kg/m3
303.14 K, 34115 kPa	1008.4 kg/m3
303.14 K, 34131 kPa	1008.4 kg/m3
303.14 K, 34147 kPa	1008.4 kg/m3
303.14 K, 34159 kPa	1008.4 kg/m3
303.14 K, 34165 kPa	1008.6 kg/m3
303.14 K, 34169 kPa	1008.5 kg/m3
303.14 K, 34174 kPa	1008.4 kg/m3
303.15 K, 191.8 kPa	988.6 kg/m3
303.15 K, 192.2 kPa	988.4 kg/m3
303.15 K, 192.4 kPa	988.5 kg/m3
303.15 K, 192.5 kPa	988.3 kg/m3
303.15 K, 192.7 kPa	988.4 kg/m3
303.15 K, 193.2 kPa	988.5 kg/m3
303.15 K, 193.4 kPa	988.5 kg/m3 and 988.4 kg/m3
303.15 K, 193.6 kPa	988.6 kg/m3
303.15 K, 193.9 kPa	988.5 kg/m3
303.15 K, 194.8 kPa	988.4 kg/m3 and 988.5 kg/m3
303.15 K, 195 kPa	988.5 kg/m3
303.15 K, 195.1 kPa	988.5 kg/m3
303.15 K, 195.8 kPa	988.6 kg/m3 and 988.4 kg/m3
303.15 K, 196 kPa	988.5 kg/m3
303.15 K, 196.2 kPa	988.3 kg/m3
303.15 K, 196.3 kPa	988.5 kg/m3
303.15 K, 196.5 kPa	988.5 kg/m3 and 988.6 kg/m3
303.15 K, 198.2 kPa	988.4 kg/m3 and 988.5 kg/m3
303.15 K, 198.4 kPa	988.4 kg/m3
303.15 K, 198.8 kPa	988.4 kg/m3 and 988.5 kg/m3
303.15 K, 198.9 kPa	988.5 kg/m3
303.15 K, 199.1 kPa	988.5 kg/m3
303.15 K, 199.3 kPa	988.4 kg/m3
303.15 K, 199.6 kPa	988.5 kg/m3 and 988.6 kg/m3
303.15 K, 200.9 kPa	988.4 kg/m3
303.15 K, 202.8 kPa	988.4 kg/m3
303.15 K, 203.1 kPa	988.5 kg/m3
303.15 K, 203.3 kPa	988.5 kg/m3
303.15 K, 203.5 kPa	988.4 kg/m3
303.15 K, 203.8 kPa	988.4 kg/m3
303.15 K, 204 kPa	988.5 kg/m3
303.15 K, 204.5 kPa	988.4 kg/m3
303.15 K, 204.7 kPa	988.4 kg/m3
303.15 K, 204.9 kPa	988.5 kg/m3 and 988.6 kg/m3
303.15 K, 205 kPa	988.5 kg/m3
303.15 K, 205.4 kPa	988.5 kg/m3 and 988.4 kg/m3
303.15 K, 205.7 kPa	988.5 kg/m3 and 988.6 kg/m3
303.15 K, 206.1 kPa	988.5 kg/m3
303.15 K, 206.2 kPa	988.5 kg/m3 and 988.4 kg/m3
303.15 K, 206.4 kPa	988.5 kg/m3
303.15 K, 206.8 kPa	988.4 kg/m3
303.15 K, 206.9 kPa	988.3 kg/m3
303.15 K, 208.3 kPa	988.4 kg/m3
303.15 K, 208.7 kPa	988.4 kg/m3
303.15 K, 210.1 kPa	988.5 kg/m3 and 988.4 kg/m3
303.15 K, 210.6 kPa	988.5 kg/m3
303.15 K, 210.9 kPa	988.3 kg/m3 and 988.4 kg/m3
303.15 K, 211.1 kPa	988.4 kg/m3 and 988.5 kg/m3 and 988.3 kg/m3
303.15 K, 211.8 kPa	988.5 kg/m3 and 988.6 kg/m3
303.15 K, 212 kPa	988.5 kg/m3
303.15 K, 212.3 kPa	988.4 kg/m3
303.15 K, 213.2 kPa	988.4 kg/m3
303.15 K, 213.6 kPa	988.5 kg/m3
303.15 K, 213.7 kPa	988.6 kg/m3
303.15 K, 214.1 kPa	988.5 kg/m3
303.15 K, 214.2 kPa	988.5 kg/m3
303.15 K, 214.4 kPa	988.5 kg/m3
303.15 K, 214.6 kPa	988.6 kg/m3
303.15 K, 214.8 kPa	988.5 kg/m3
303.15 K, 215.1 kPa	988.4 kg/m3
303.15 K, 215.5 kPa	988.5 kg/m3
303.15 K, 215.6 kPa	988.4 kg/m3 and 988.5 kg/m3
303.15 K, 216 kPa	988.5 kg/m3
303.15 K, 216.2 kPa	988.5 kg/m3
303.15 K, 216.5 kPa	988.5 kg/m3
303.15 K, 216.7 kPa	988.6 kg/m3
303.15 K, 216.9 kPa	988.5 kg/m3
303.15 K, 217 kPa	988.5 kg/m3
303.15 K, 217.2 kPa	988.4 kg/m3
303.15 K, 217.7 kPa	988.4 kg/m3
303.15 K, 218.1 kPa	988.5 kg/m3
303.15 K, 218.2 kPa	988.5 kg/m3
303.15 K, 218.6 kPa	988.5 kg/m3
303.15 K, 219.1 kPa	988.5 kg/m3
303.15 K, 219.4 kPa	988.6 kg/m3
303.15 K, 219.6 kPa	988.5 kg/m3
303.15 K, 219.8 kPa	988.4 kg/m3
303.15 K, 220 kPa	988.4 kg/m3
303.15 K, 220.2 kPa	988.4 kg/m3
303.15 K, 220.3 kPa	988.4 kg/m3
303.15 K, 224.1 kPa	988.4 kg/m3
303.15 K, 224.8 kPa	988.5 kg/m3
303.15 K, 225.2 kPa	988.4 kg/m3
303.15 K, 225.4 kPa	988.5 kg/m3
303.15 K, 228.3 kPa	988.6 kg/m3
